Read-outs that look alike come from different tables or passages of the source.
Columns and labels:
[1] = system: Caov-3; experiment: Cell growth inhibition, SRB assay; assay type: cell-based, human; conditions: Homo sapiens; Ovarian Caov-3, 3% FBS
Experimental: (§1) Compounds were dissolved in DMSO and further diluted in cell culture medium for the experiments performed. Cells were seeded into 96-well plates with 1,500-5,000 cells/well according to cell growth rate. After 24 h, DMEM medium containing 10% FBS were changed to DMEM containing 3% FBS for cancer cells and additional 3% FBS were added into the culture medium for normal cells. The compound was added into the cell culture at the indicated concentrations, and the final concentration of DMSO was adjusted to a final concentration of 0.1%. Cells were subjected to either normoxic condition (20% O2) for 6 days or hypoxic condition (0.2% O2) for 2 days and then transferred to normoxic condition for 4 days. Cell viability was assessed by Sulforhodamine B (SRB) assay at Day 6.
(§2) Sulforhodamine B (SRB) (Sigma, Oakville, ON, Canada) is a water-soluble dye that binds to the basic amino acids of the cellular proteins. Thus, colorimetric measurement of the bound dye provides an estimate of the total protein mass that is related to the cell number. The cells were fixed in situ by gently aspirating off the culture media and adding 50 ul of cold 10% trichloroacetic Acid (TCA) per well and incubated at 4° C. for 30-60 min. The plates were washed five times with water and allowed to air dry for 5 min. 50 ul of 0.4% (w/v) SRB dissolved in 1% (v/v) acetic acid were added into each well, plates were then incubated at RT for 30 min for staining, washed four times with 1% acetic acid to remove any unbound dye and then allowed to air dry for 5 min. Stain was solubilized with 100 ul of 10 mM Tris pH 10.5 per well. Absorbance was read at 570 nm on a spectrophotometer. GI50 (compound concentration required for 50% of growth inhibition) was calculated using GraphPad Prism 4.0 software (GraphPad Software, Inc., San Diego, Calif., USA).
(§3) Cell viability of various cell lines treated with 3-carboxy-N,N,N-trimethyl-2-pentadecanamidopropan-1-aminium (“nPAC”) and compound of Examples S7, S63, S66, S90, S89, S67, S75 and S10 was also assessed in a manner as described above in Example 5.

[2] = system: HCT116 p53+/+; experiment: Cell growth inhibition, SRB assay; assay type: cell-based; conditions: Homo sapiens, HCT-116, mean±SD of 2 experiments (FIG. 2)
Experimental: (§4) Human cancer cells (MCF-7, H358, H460, HCT116 p53^+/+, HCT116 p53^−/−, A172, PC-3, DU-145 and SW626) were maintained in DMEM medium containing 10% Fetal Bovine Serum (FBS) (Invitrogen, Burlington, ON, Canada) and normal cells HMEC, 184A1, NHBE and PrEC were cultured in MEGM, MEGM plus transferring and cholera toxin, BEGM and PrEGM supplemented with various growth factors (Cambrex, Charles city, IA, USA), respectively.
as §1, §2

[3] = system: HCT116 p53−/−; experiment: Cell growth inhibition, SRB assay; assay type: cell-based; conditions: Homo sapiens, HCT-116, mean±SD of 2 experiments (FIG. 2)
Experimental: as §4, §1, §2

[4] = system: DU-145; experiment: Cell growth inhibition, SRB assay; assay type: cell-based; conditions: Homo sapiens, mean±SD of 2 experiments (FIG. 2)
Experimental: as §4, §1, §2

[5] = system: H460; experiment: Cell growth inhibition, SRB assay; assay type: cell-based; conditions: Homo sapiens
Experimental: as §4, §1, §2

[6] = system: HCT116; experiment: Cell growth inhibition, SRB assay, normoxia and hypoxia; assay type: cell-based; conditions: Homo sapiens
Experimental: as §4, §1
(§5) Sulforhodamine B (SRB) (Sigma, Oakville, ON, Canada) is a water-soluble dye that binds to the basic amino acids of the cellular proteins. […] Absorbance was read at 570 nm on a spectrophotometer. […]

[7] = system: normal cells, including human mammary epithelial cell line 184A1 and human primary epithelial cells HMEC (mammary); NHBE (lung) and PrEC (prostate); experiment: Growth of normal cells, SRB assay; assay type: cell-based; conditions: 184A1, HMEC, SRB assay (FIG. 2B)
Experimental: as §4, §1, §5

[8] = system: MDA-231; experiment: Cell growth inhibition, SRB assay; assay type: cell-based, human; conditions: Homo sapiens, MDA-MB-231; Breast MDA-231, 3% FBS
Experimental: as §1, §2, §3

CCCCCCCCCCCCc1ccc(NS(=O)(=O)N[C@H](CC(=O)O)C[N+](C)(C)C)cc1 [Example S89, (R)-3-(N-(4-dodecylphenyl)sulfamoylamino)-4-(trimethylammonio)-butanoate] was tested, and the GI50 [1] was 1.5 µM.
CCCCCCCCCCOc1cccc(C(=O)N[C@H](CC(=O)[O-])C[N+](C)(C)C)c1 [Example S67, (R)-3-(3-(decyloxy)benzamido)-4-(trimethylammonio)butanoate] gave a GI50 [1] of 0.8 µM.
Work on CCCCCCCCc1ccc(NC(=O)N[C@H](CC(=O)[O-])C[N+](C)(C)C)cc1 [Example S7, (R)-3-(3-(4-octylphenyl)ureido)-4-(trimethylammonio)butanoate] yielded a GI50 [2] of 9.3 ± 1.7 µM, a GI50 [3] of 13 ± 0.8 µM and a GI50 [4] of 24 ± 2.8 µM. The GI50 ([5]; NCI-H460, 144 h, H460, normoxic condition (20% O2) for 6 days, read-out: GI50 Normoxi) was 8.8 ± 1.2 µM, the GI50 ([5]; NCI-H460, H460, hypoxic condition (0.2% O2) for 2 days, then normoxic for 4 days, read-out: GI50 Hypoxia) was 2.6 ± 0.6 µM and the GI50 ([5]; NCI-H460, SRB assay, mean±SD of 2 experiments (FIG. 2), read-out: GI50 for H460) was 8.8 ± 2 µM. The GI50 ([6]; HCT-116, 144 h, normoxic condition (20% O2) for 6 days, read-out: GI50 Normoxi) was 9.3 ± 0.7 µM, the GI50 ([6]; HCT-116, hypoxic condition (0.2% O2) for 2 days, then normoxic for 4 days, read-out: GI50 Hypoxia) was 5.7 ± 0.6 µM and the “growth inhibition of normal cells” value [7] was “inhibits growth of cancer cells but not normal cells”. For the same compound, the GI50 [1] was 1.3 µM and the GI50 [8] was 27 µM.
CCCCCCCCCCc1ccc(C(=O)N[C@H](CC(=O)[O-])C[N+](C)(C)C)cc1 [Example S66, (R)-3-(4-decylbenzamido)-4-(trimethylammonio)butanoate] showed a GI50 [8] of 9.4 µM.
Work on CCCCCCCOc1ccc(NC(=O)N[C@H](CC(=O)[O-])C[N+](C)(C)C)cc1 [Example S10, (R)-3-(3-(4-(heptyloxy)phenyl)ureido)-4-(trimethylammonio)butanoate] yielded a GI50 [1] of 13 µM and a GI50 [8] greater than 50 µM.
CCCCCCCCCCOc1ccc(C(=O)N[C@H](CC(=O)O)C[N+](C)(C)C)cc1 [Example S63, (R)-3-(4-(decyloxy)benzamido)-4-(trimethylammonio)butanoate 2,2,2-trifluoroacetate] was tested, and the GI50 [8] was 8.5 µM.
With CCCCCCCCCCCCCCc1ccc(NS(=O)(=O)N[C@H](CC(=O)O)C[N+](C)(C)C)cc1 [Example S90, (R)-3-(N-(4-tetradecylphenyl)sulfamoylamino)-4-(trimethylammonio)-butanoate] the GI50 [1] was 1.6 µM.
